Results taken from patent publication US11000033B2, “Ketone or oxime compound, and herbicide” (NISSAN CHEMICAL CORPORATION, priority 2014, dated 2021).

Legend:
Type in all cases: in vivo
Galium spurium [1] = assay: Test Example 4: herbicidal effect by soil treatment (symbol Q); conditions: application herbicide amount 320 g/ha
Method in brief: (§1)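 Seeds were sown in sterilized diluvial soil, covered with about 1.5 cm of soil, and the soil surface was sprayed with a water-diluted emulsion of the compound at a predetermined rate. Plants grew in a greenhouse at 25° C. to 30° C.; effects were scored visually 3 weeks after application.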

beet [2] = assay: Test Example 5: effect on crop by foliage application, plastic box (symbol f); conditions: 320 g/ha, 3 weeks after application
Method in brief: (§2)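 Greenhouse test at 25° C. to 30° C. Seeds of crops and weeds were spot-sown in boxes of sterilized diluvial soil under roughly 1.5 cm soil cover, then grown for foliage treatment.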

rice = assay: Test Example 4: effect on crop by soil treatment (symbol b); conditions: application herbicide amount 320 g/ha
Method in brief: (§3)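 Steps: fill box with sterilized diluvial soil; sow seed spot-like; cover with ~1.5 cm soil; grow in greenhouse (25° C. to 30° C.).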

Galium spurium [3] = assay: Test Example 5: herbicidal effect by foliage application, plastic box (symbol Q); conditions: 320 g/ha, 3 weeks after application
Method in brief: (§4)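 Effect is rated 3 weeks after a foliar spray of water-diluted emulsion concentrate at a predetermined herbicide amount. Plants had grown 14 days in a 25° C. to 30° C. greenhouse from seed in sterilized diluvial soil.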

Stellaria media [4] = assay: Test Example 4: herbicidal effect by soil treatment (symbol P); conditions: application herbicide amount 320 g/ha
Method in brief: as §1

wheat = assay: Test Example 5: effect on crop by foliage application, plastic box (symbol e); conditions: 320 g/ha, 3 weeks after application
Method in brief: as §2

beet [5] = assay: Test Example 4: effect on crop by soil treatment (symbol f); conditions: application herbicide amount 320 g/ha
Method in brief: as §3

rapeseed = assay: Test Example 4: effect on crop by soil treatment (symbol g); conditions: application herbicide amount 320 g/ha
Method in brief: as §3

Avena fatua = assay: Test Example 5: herbicidal effect by foliage application, plastic box (symbol I); conditions: 320 g/ha, 3 weeks after application
Method in brief: as §4

Veronica persica [6] = assay: Test Example 4: herbicidal effect by soil treatment (symbol R); conditions: application herbicide amount 320 g/ha
Method in brief: as §1

Chenopodium album = assay: Test Example 5: herbicidal effect by foliage application, plastic box (symbol O); conditions: 320 g/ha, 3 weeks after application
Method in brief: as §4

soybean = assay: Test Example 4: effect on crop by soil treatment (symbol d); conditions: application herbicide amount 320 g/ha
Method in brief: as §3

Lolium multiflorum Lam. = assay: Test Example 4: herbicidal effect by soil treatment (symbol K); conditions: application herbicide amount 320 g/ha
Method in brief: as §1

Alopecurus myosuroides = assay: Test Example 4: herbicidal effect by soil treatment (symbol J); conditions: application herbicide amount 320 g/ha
Method in brief: as §1

Digitaria ciliaris [7] = assay: Test Example 5: herbicidal effect by foliage application, plastic box (symbol F); conditions: 320 g/ha, 3 weeks after application
Method in brief: as §4

Setaria viridis = assay: Test Example 5: herbicidal effect by foliage application, plastic box (symbol G); conditions: 320 g/ha, 3 weeks after application
Method in brief: as §4

[8] = test system: directly sowed rice plant; assay: Test Example 3: effect on crop by foliage application, Wagner pot (symbol b); conditions: application herbicide amount 320 g/ha, Table 24
Method in brief: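 Plants are raised from seed in flooded paddy conditions: water stands 0.1–0.5 cm over alluvial soil, and the pot is kept in a greenhouse at 25–30 °C. Species sown are barnyardgrass (E. crus-galli var. crus-galli), Leptochloa chinensis, Cyperus difformis and rice.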

Veronica persica [9] = assay: Test Example 5: herbicidal effect by foliage application, plastic box (symbol R); conditions: 320 g/ha, 3 weeks after application
Method in brief: as §4

rice plant = assay: Test Example 5: effect on crop by foliage application, plastic box (symbol b); conditions: 320 g/ha, 3 weeks after application
Method in brief: as §2

Digitaria ciliaris [10] = assay: Test Example 4: herbicidal effect by soil treatment (symbol F); conditions: application herbicide amount 320 g/ha
Method in brief: as §1

Abutilon theophrasti = assay: Test Example 5: herbicidal effect by foliage application, plastic box (symbol M); conditions: 320 g/ha, 3 weeks after application
Method in brief: as §4

Stellaria media [11] = assay: Test Example 5: herbicidal effect by foliage application, plastic box (symbol P); conditions: 320 g/ha, 3 weeks after application
Method in brief: as §4

Apera spica-venti = assay: Test Example 5: herbicidal effect by foliage application, plastic box (symbol L); conditions: 320 g/ha, 3 weeks after application
Method in brief: as §4

corn = assay: Test Example 4: effect on crop by soil treatment (symbol c); conditions: application herbicide amount 320 g/ha
Method in brief: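 Grown at 25° C. to 30° C. in a greenhouse, the crops came from seed sown spot-wise in sterilized diluvial soil under roughly 1.5 cm of covering soil.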

[12] = test system: Echinochloa crus-galli var. crus-galli; assay: Test Example 4: herbicidal effect by soil treatment (symbol H); conditions: application herbicide amount 320 g/ha
Method in brief: as §1

Cc1cc(-n2cc(Cl)cn2)cc(C)c1C1=C(O)CC(CC(=NOCC(F)(F)F)C(C)C)C1=O (stereo not shown) [9-014]
Herbicidal effect grade, Q: Galium spurium (Galium spurium [1]): 0 (Herbicidal ratio of 5% or lower (almost no effect))
f: beet, effect on crop grade (beet [2]): 0 (Herbicidal ratio of 5% or lower (almost no effect))
Effect on crop grade, b: directly sowed rice plant (rice): 1 (Herbicidal ratio of 5% or higher and lower than 20%)
Q: Galium spurium, herbicidal effect grade (Galium spurium [3]): 0 (Herbicidal ratio of 5% or lower (almost no effect))
Herbicidal effect grade, P: Stellaria media (Stellaria media [4]): 0 (Herbicidal ratio of 5% or lower (almost no effect))
e: wheat, effect on crop grade (wheat): 1 (Herbicidal ratio of 5% or higher and lower than 20%)
Effect on crop grade, f: beet (beet [5]): 0 (Herbicidal ratio of 5% or lower (almost no effect))
Effect on crop grade, g: rapeseed (rapeseed): 0 (Herbicidal ratio of 5% or lower (almost no effect))
I: Avena fatua, herbicidal effect grade (Avena fatua): 4 (Herbicidal ratio of 70% or higher and lower than 90%)
Herbicidal effect grade, R: Veronica persica (Veronica persica [6]): 0 (Herbicidal ratio of 5% or lower (almost no effect))
O: Chenopodium album, herbicidal effect grade (Chenopodium album): 0 (Herbicidal ratio of 5% or lower (almost no effect))
Effect on crop grade, d: soybean (soybean): 0 (Herbicidal ratio of 5% or lower (almost no effect))
Herbicidal effect grade, K: Lolium multiflorum Lam. (Lolium multiflorum Lam.): 0 (Herbicidal ratio of 5% or lower (almost no effect))
Herbicidal effect grade, J: Alopecurus myosuroides (Alopecurus myosuroides): 0 (Herbicidal ratio of 5% or lower (almost no effect))
F: Digitaria ciliaris, herbicidal effect grade (Digitaria ciliaris [7]): 5 (Herbicidal ratio of 90% or more (almost completely withered))
G: Setaria viridis, herbicidal effect grade (Setaria viridis): 5 (Herbicidal ratio of 90% or more (almost completely withered))
b (directly sowed rice plant) effect on crop grade [8]: 5 (Herbicidal ratio of 90% or more (almost completely withered))
R: Veronica persica, herbicidal effect grade (Veronica persica [9]): 2 (Herbicidal ratio of 20% or higher and lower than 40%)
b: directly sowed rice plant, effect on crop grade (rice plant): 5 (Herbicidal ratio of 90% or more (almost completely withered))
Herbicidal effect grade, F: Digitaria ciliaris (Digitaria ciliaris [10]): 4 (Herbicidal ratio of 70% or higher and lower than 90%)
M: Abutilon theophrasti, herbicidal effect grade (Abutilon theophrasti): 0 (Herbicidal ratio of 5% or lower (almost no effect))
P: Stellaria media, herbicidal effect grade (Stellaria media [11]): 0 (Herbicidal ratio of 5% or lower (almost no effect))
L: Apera spica-venti, herbicidal effect grade (Apera spica-venti): 3 (Herbicidal ratio of 40% or higher and lower than 70%)
Effect on crop grade, c: corn (corn): 0 (Herbicidal ratio of 5% or lower (almost no effect))
Herbicidal effect grade, H: Echinochloa crus-galli var. crus-galli [12]: 1 (Herbicidal ratio of 5% or higher and lower than 20%)
